Experimental data taken from patent US20220395467A1, “THERAPEUTIC PROTEIN-BASED NANOPARTICLES AND METHODS FOR MAKING THE SAME” (THE REGENTS OF THE UNIVERSITY OF MICHIGAN, priority 2019, published 2022).

Tested on: B16F10-OVA melanoma
Assay: Therapeutic efficacy in murine model of B16F10-OVA melanoma
Format: in vivo, C57BL/6 mice
Description: FIGS. 9A-9B. FIGS. 9A-9B show therapeutic effect of OVA pNPs. In FIG. 9A, a vaccine doses and regimen for a murine model is shown. […] C57BL/6 mice are inoculated subcutaneously with 1×10^5 B 16F10-OVA cells on day 0. On days 7 and 14, mice are treated with indicated formulations (OVA pNP, soluble OVA, PBS) containing 10 μg/dose OVA and 15 μg/dose CpG (100 μL dose). Data represent mean±SEM (n=10). Groups are compared using Kaplan-Meier estimator analysis. P<0.05 is considered statistically different (*P<0.05). P>0.05 is considered not significant.
Therapeutic efficacy of pNPs in a model of melanoma. Encouraged by the fact that OVA pNPs with 10% PEG/OVA ratio result in increased OT-I CD8+ cell proliferation in vitro, improved uptake by APCs (both in vitro and in vivo), and enhanced humoral immune response in vivo, a murine model of B16F10-OVA melanoma was employed to evaluate the therapeutic efficacy of pNPs with a PEG/OVA ratio of 10% compared to solute OVA. […] Following the regimen shown in FIG. 9A, C57BL/6 mice (10 mice/treatment group) were inoculated with 1×10^5 B16F10-OVA cells in the SC flank on day 0. […] A second treatment was given on day 14. Mice were euthanized after their tumors reached 15 mm in any dimension. […] More than 50% of mice treated with solute OVA were euthanized due to large tumor burden on day 20, and 100% of the mice were euthanized on day 21.

[1] = treated days 7 and 14, 10 μg OVA + 15 μg CpG, n=10

## Ovalbumin [soluble OVA, soluble ovalbumin antigen used as control]
Solute OVA vs no treatment control, pNPs until endpoint day 24
  animal survival: slightly better survival
[1]
  mice euthanized due to large tumor burden on day 20: More than 50%
  mice euthanized on day 21: 100%
